Laboratory results: patent US20250295583A1, “INHALED HEDGEHOG INHIBITORS” (WBX PHARMA, INC., priority 2024, published 2025)
Where “and” joins values, the source holds several entries; their conditions need not be identical. Equal values may be shown once.

Experiments:
[1] = Accumulation factor calculation at steady state; settings: half-life 3 days, dosing interval 1 day, first-order kinetics
Excerpt: This calculation assumes the API is being administered in a clinically effective formulation as disclosed herein, at regular intervals, and that the pharmacokinetics of the candidate compound follow first-order kinetics where the rate of drug elimination is proportional to its concentration. To calculate the multiple of the initial drug concentration at steady state (known as the “accumulation factor”), the formula:
Substitute into the formula: With τ=1 day: AF=1/(1−e^(−0.231*1))≈1/(1−e^(−0.231)).
Evaluate the exponential: e^(−0.231)≈0.794.

[2] = cited from earlier work
[3] = 150 mg daily oral dose, cited from earlier work
[4] = Estimate of epithelial lining fluid (ELF) concentration after inhaled delivery, from pirfenidone data; design: species or system human; settings: for predicted ELF concentration adjusted for 200 μg delivery: inhaled dry powder, 200 μg delivered; for predicted ELF molar concentration if 45 mg delivered: inhaled, extrapolated from pirfenidone data
Procedure: The physical delivery of any drug by the inhalation route may be estimated by data generated in the delivery of inhaled pirfenidone.
Again, since delivery is just a physical process, one can estimate ELF concentrations for 200 μg of taladegib delivered as noted above based on pirfenidone data.

[5] = type: physicochemical
Procedure: Four dry powder formulations were developed using spray drying with two being acceptable for human use. […] The selected bulking agents were mannitol or trehalose with dispersibility enhancer: L-leucine (˜0.55 wt % solubility limit in 50:50 EtOH: water). Two mannitol formulations and two trehalose formulations with different amounts of L-leucine 10% and 26% were made using a BLD-35 spray dryer. The tested dose was 10 mg of the formulation in a Berry RSO1 high resistance inhaler.

[6] = Estimate of systemic exposure after inhaled dosing versus oral dose; design: species or system human
Procedure: This would be about 6 half-lives. Depending on the half-life in the epithelial lining fluid, one to six inhalations a day would provide adequate inhibition of hedgehog receptors. At the highest dose frequency (6 inhalations/day), the total delivered dose would approximate 3.6 mg.

[7] = Published pharmacokinetics of oral vismodegib; type: in vivo, human; settings: once daily oral therapy
Excerpt: Only unbound drug can freely cross the alveolar epithelial barrier.

[8] = test system: IPF patients; settings: 21 IPF patients, cited from earlier work; for patients who discontinued the drug: combination trial of vismodegib plus pirfenidone
[9] = test system: IPF; settings: given orally alone as a monotherapy; cited from earlier work
[10] = cited from earlier work; remark: listed apart in the source
[11] = test system: subjects with mild to moderate IPF; settings: cited from earlier work
[12] = cited from earlier work; remark: listed apart in the source

Compound: CS(=O)(=O)c1ccc(C(=O)Nc2ccc(Cl)c(-c3ccccn3)c2)c(Cl)c1 [vismodegib, Vismodegib]
- accumulation factor, steady state concentration versus after the first dose [1]: about 4.85 times
- plasma protein bound [2]: 98%
- plasma protein binding, in words ([2]; to albumin and alpha-1 acid glycoprotein): highly protein-bound
- mean unbound concentration ([3]; steady state): 109 ± 58 nM
- peak plasma concentration at steady state [3]: 22.6 ± 10.8 µmol/L
- predicted ELF concentration adjusted for 200 μg delivery [4]: 1.71 µmol/L
- predicted ELF molar concentration if 45 mg delivered [4]: 388 µmol/L
- amount dissolved in 50:50 EtOH: water (wt/wt) solution ([5]; 50:50 EtOH: water (wt/wt)): 4%
- total systemic exposure ([6]; six administrations a day of a 30 mg capsule (delivered dose 600 μg each)): 3.6 mg
- plasma concentration nadir, of the peak [7]: about 80%
- patients who discontinued the drug [8]: 42.9%
- lung function and shortness of breath ([8]; vismodegib 150 mg daily plus pirfenidone 801 mg three times daily, 24 weeks, on average): improved
- patients reporting at least one treatment-emergent adverse event ([8]; vismodegib 150 mg daily plus pirfenidone, 24 weeks): all patients

Compound: COC(=O)c1ccc2c(c1)NC(=O)/C2=C(\Nc1ccc(N(C)C(=O)CN2CCN(C)CC2)cc1)c1ccccc1 [nintedanib]
- slowing of the progression of the disease [9]: about 50%

Compound: Cc1ccc(=O)n(-c2ccccc2)c1 [pirfenidone]
- amount delivered to the lung ([10]; 100 mg dose in the nebulizer, 24 hour urine analysis): 45 mg
- epithelial lining fluid concentration ([10]; aerosolized, normal volunteers, average): 135 µg/mL
- slowing of the progression of the disease [9]: about 50%
- patients who discontinued the drug [8]: 33.3%

Compound: CN(C(=O)c1ccc(F)cc1C(F)(F)F)C1CCN(c2nnc(-c3ccnn3C)c3ccccc23)CC1 [taladegib, Taladegib]
- plasma protein bound [2]: 95%
- ELF concentration versus that achieved by 200 mg oral dose of taladegib (unbound) ([4]; 200 μg inhaled delivered dose): ≈ 29 fold and > 29 fold
- predicted ELF concentration adjusted for 200 μg delivery [4]: 1.16 µmol/L
- predicted ELF molar concentration if 45 mg delivered [4]: 264 µmol/L
- alopecia ([11]; oral taladegib group): 52%
- dysgeusia ([11]; oral taladegib group): 57%
- muscle spasms ([11]; oral taladegib group): 43%
- lung fibrosis by high resolution CT scan ([11]; oral taladegib versus slight increase in placebo group): decreased lung fibrosis
- improvement in FVC ([11]; oral taladegib, at 12 weeks, on average, placebo 1.3% loss (p=0.035)): 1.9%
- systemic exposure/absorption relative to the oral dose ([6]; six inhalations a day, total 3.6 mg): less than 10%
- mean concentration at steady state ([12]; 200 mg daily oral dose): about 0.8 μmol/L
- absorption ([12]; 200 mg oral dose): approximately 30%

Compound: CC(C)C[C@H](N)C(=O)O [L-leucine]
- solubility limit in 50:50 EtOH: water [5]: ~0.55 wt %
